Laboratory results: patent publication US5047244A, “Mucoadhesive carrier for delivery of therapeutical agent” (priority 1988, dated 1991)
Values after ≈ are worked out from the molar mass of the structure shown.

Key:
Format in all cases: physicochemical
[1] = In vitro therapeutic agent release (USP Dissolution Test Method II, 0.05M isotonic phosphate buffer pH 6.0 with 30 weight percent PEG 400); settings: for In vitro release of 17 β-estradiol: Example 17 carrier (Table XIX, mannitol); for Therapeutic Agent Release Parameter, T, 20% / Therapeutic Agent Release Parameter, T, 50% / Therapeutic Agent Release Parameter, T, 75% / Therapeutic Agent Release Parameter, T, 90%: Example 7 carrier (Table VII), 20 mg agent, agent:PEG 8000 1:2; for In vitro release of dehydroepiandrosterone: Example 12 carrier, 5 mg DHEA
Description: Therapeutic agent release studies were conducted using an Erweka dissolution test assembly in compliance with Dissolution Test Method II as described in The United States Pharmacopeia, 24th revision (USP XXIV). Five hundred milliliters of a 0.1M phosphate buffer dissolution fluid was maintained at about 37° C. (about 100° F.) and the […] was rotated at 50 revolutions per minute (rpm). At predetermined time points, samples of approximately 3 milliliters of the test medium were withdrawn from the flasks and immediately replaced with an equivalent volume of blank buffer. Analysis of the samples was performed by ultraviolet spectrophotometry. […] The time to achieve 20%, 50% and 80% by weight dissolution of the piroxicam was estimated from a linear plot of percent dissolved versus time.
Therapeutic agent release testing was conducted by the USP Dissolution Test Method II. The dissolution medium chosen was 500 ml of a 0.05M isotonic phosphate buffer having a 6.0 pH with 30 weight percent PEG 400.
An equivalent of 20 mg of albuterol in a mucosal composition of a albuterol:PEG 8000 weight in a ratio of 1:2 was included in each carrier. […] Plots of weight percent therapeutic agent released versus time were constructed and the drug release parameter T (in hours) for a given weight and percent drug released was calculated from the plots.

[2] = as above; settings: for In vitro release of 17 β-estradiol: Example 17 carrier (Table XIX, mannitol); for In vitro release of therapeutic agent: 20 mg piroxicam
[3] = Saturation solubility in phosphate buffer; settings: 0.1m phosphate buffer, aqueous buffer

C[C@]12CC[C@@H]3c4ccc(O)cc4CC[C@H]3[C@@H]1CC[C@@H]2O [17 β-estradiol]
In vitro release of therapeutic agent ([1]; Example 10 carrier, 17 β-estradiol, 1 hour): 2.5 weight percent | In vitro release of therapeutic agent ([1]; Example 10 carrier, 17 β-estradiol, 2 hours): 4 weight percent | In vitro release of therapeutic agent ([1]; Example 10 carrier, 17 β-estradiol, 5 hours): 9.5 weight percent | In vitro release of therapeutic agent ([1]; Example 10 carrier, 17 β-estradiol, 24 hours): 46.3 weight percent | In vitro release of 17 β-estradiol ([1]; 5 hours): 9.5 weight percent | In vitro release of 17 β-estradiol ([1]; 10 hours): 15 weight percent | Order of release ([2]; Example 10 carrier, 17 β-estradiol): apparent zero order process | In vitro release of 17 β-estradiol ([2]; 15 hours): 17 weight percent | In vitro release of 17 β-estradiol ([2]; 20 hours): 19.5 weight percent

CC(C)(C)NCC(O)c1ccc(O)c(CO)c1 (stereo not drawn) [Albuterol]
Therapeutic Agent Release Parameter, T, 20% [1]: 0.58 h | Therapeutic Agent Release Parameter, T, 50% [1]: 3.16 h | Therapeutic Agent Release Parameter, T, 75% [1]: 5.67 h | Therapeutic Agent Release Parameter, T, 90% [1]: 6.83 h | Time to release 20% by weight of albuterol ([1]; Example 13 carrier (Table XV)): approximately 0.8 hr | Time to release 50% by weight of albuterol ([1]; Example 13 carrier (Table XV)): ~2.6 h | Time to release 75% by weight of albuterol ([1]; Example 13 carrier (Table XV)): ~6 h | Time to release 90% by weight of albuterol ([1]; Example 13 carrier (Table XV)): ~10.5 h | Time to release 20% by weight of albuterol ([1]; Example 14 carrier (Table XVI)): approximately 1 hr | Time to release 50% by weight of albuterol ([1]; Example 14 carrier (Table XVI)): ~3.5 h | Time to release 75% by weight of albuterol ([1]; Example 14 carrier (Table XVI)): ~8 h | Time to release 90% by weight of albuterol ([1]; Example 14 carrier (Table XVI)): ~15 h | In vitro release of albuterol ([1]; Example 15 carrier (Table XVII), 3 hours): 22 weight percent | In vitro release of albuterol ([1]; Example 15 carrier (Table XVII), 7.5 hours): 50 weight percent | In vitro release of albuterol ([1]; Example 15 carrier (Table XVII), 12 hours): 75 weight percent | In vitro release of albuterol ([1]; Example 15 carrier (Table XVII), 18 hours): 90 weight percent | In vitro release of albuterol ([1]; Example 16 carrier (Table XVIII), 2 hours): 27 weight percent | In vitro release of albuterol ([1]; Example 16 carrier (Table XVIII), 5 hours): 50 weight percent | In vitro release of albuterol ([1]; Example 16 carrier (Table XVIII), 10 hours): 73 weight percent | In vitro release of albuterol ([1]; Example 16 carrier (Table XVIII), 19 hours): 90 weight percent

CC(N)C(O)c1ccccc1 (stereo not drawn) [Phenylpropanolamine]
Therapeutic Agent Release Parameter, T, 20% [1]: 0.58 h | Therapeutic Agent Release Parameter, T, 50% [1]: 2.83 h | Therapeutic Agent Release Parameter, T, 75% [1]: 6.04 h | Therapeutic Agent Release Parameter, T, 90% [1]: 8.42 h

C[C@]12CC[C@H](O)CC1=CC[C@@H]1[C@@H]2CC[C@]2(C)C(=O)CC[C@@H]12 [dehydroepiandrosterone]
In vitro release of dehydroepiandrosterone ([1]; 6 hours): 20 weight percent | In vitro release of dehydroepiandrosterone ([1]; 10.5 hours): 30 weight percent | In vitro release of dehydroepiandrosterone ([1]; 13 hours): 40 weight percent | In vitro release of dehydroepiandrosterone ([1]; 23 hours): 50 weight percent

CN1C(C(=O)Nc2ccccn2)=C(O)c2ccccc2S1(=O)=O [piroxicam]
In vitro release of therapeutic agent ([1]; Example 9 carrier, 20 mg piroxicam, 6 hours): 24.1 weight percent | In vitro release of therapeutic agent ([1]; Example 9 carrier, 20 mg piroxicam, 23 hours): 56 weight percent | In vitro release of therapeutic agent ([1]; Example 9 carrier, 20 mg piroxicam, one hour): 5 weight percent | Order of release ([1]; Example 9 carrier, piroxicam): apparent zero order rate | In vitro release of therapeutic agent ([2]; Example 9 carrier, three hours): 13 weight percent | In vitro release of therapeutic agent ([2]; Example 9 carrier, two hours): 9 weight percent | Therapeutic agent remaining in the carrier ([2]; Example 9 carrier, piroxicam, after 23 hours): 36-47 weight percent | solubility [3]: ~7700 µg/mL (≈ 23.2 mM)
